In patent publication US11136312B2, “3,4,5-trisubstituted-1,2,4-triazoles and 3,4,5-trisubstituted-3-thio-1,2,4-triazoles and uses thereof” (Board of Trustees of Southern Illinois University, priority 2017, dated 2021):

Columns and labels:
[1] = target: human somatostatin receptor SSTR5 (Homo sapiens (Human), UniProt P35346); assay: Competitive radioligand binding, 125I-Tyr-SRIF 14, membrane preparations; details: competitive binding vs 125I-Tyr-SRIF 14, human SSTR5 membranes; read-out: SST5
Description: (§1) Respective membrane receptor preparations were prepared in assay buffer (25 mM HEPES, 10 mM MgCl2, 1 mM CaCl2, 0.5% BSA, pH=7.4) at a 1:150 dilution. […] Binding assays were performed in triplicate for each concentration of ligand in a total volume of 200 μL radioligand (25 μL ligand, 25 μL radioligand, 150 μL receptors) and incubated at room temperature for 90 minutes using a shaking table. Binding was terminated by filtration through GF/B glass fiber filters that were presoaked in 0.5% polyethyleneimine for a minimum of 4 hours. Filters were washed 9× with 1000 μL ice cold wash buffer (50 mM Tris-HCl, pH=7.4, 0.2% BSA). Filters were scored, transferred into plastic test tubes and counted in a gamma counter (Wizard2, Perkin-Elmer). Determination of the Ki for each compound was performed using non-linear regression with GraphPad PRISM-5 software (GraphPad Software, Inc., La Jolla, Calif.).

[2] = target: human somatostatin receptor SSTR1 (Homo sapiens (Human), UniProt P30872); assay: as above; details: competitive binding vs 125I-Tyr-SRIF 14, human SSTR1 membranes; read-out: SST1
Description: as §1

[3] = target: human somatostatin receptor SSTR2A (Homo sapiens (Human), UniProt P30874); assay: as above; details: competitive binding vs 125I-Tyr-SRIF 14, human SSTR2A membranes; read-out: SST2
Description: as §1

[4] = target: human somatostatin receptor SSTR3 (Homo sapiens (Human), UniProt P32745); assay: as above; details: competitive binding vs 125I-Tyr-SRIF 14, human SSTR3 membranes; read-out: SST3
Description: Competitive radioligand binding experiments were performed using MEMBRANE TARGET Systems (Perkin-Elmer, Boston, Mass.) for human somatostatin receptors: SSTR1 (ES-520-M400UA), SSTR2A (ES-521-M400UA), SSTR3 (ES523-M400UA), SSTR4 (ES-524-M400UA) and SSTR5 (ES-522-M400UA) receptors. (See Table 1). Respective membrane receptor preparations were prepared in assay buffer (25 mM HEPES, 10 mM MgCl2, 1 mM CaCl2, 0.5% BSA, pH=7.4) at a 1:150 dilution. Binding assays were performed using 1251-Tyr-SRIF 14 (Perkin-Elmer, NEX 3890) dissolved in 1 mM HCl. Binding assays were performed in triplicate for each concentration of ligand in a total volume of 200 μL radioligand (25 μL ligand, 25 μL radioligand, 150 μL receptors) and incubated at room temperature for 90 minutes using a shaking table. Binding was terminated by filtration through GF/B glass fiber filters that were presoaked in 0.5% polyethyleneimine for a minimum of 4 hours. Filters were washed 9× with 1000 μL ice cold wash buffer (50 mM Tris-HCl, pH=7.4, 0.2% BSA). Filters were scored, transferred into plastic test tubes and counted in a gamma counter (Wizard2, Perkin-Elmer). Determination of the Ki for each compound was performed using non-linear regression with GraphPad PRISM-5 software (GraphPad Software, Inc., La Jolla, Calif.).

[5] = target: CHO-K1 cells expressing human somatostatin SSTR4 (Homo sapiens (Human), UniProt P31391); assay: Inhibition of forskolin stimulated cAMP, TR-FRET LANCE assay; format: cell-based; details: against 5 μM forskolin
Description: Measurement of forskolin stimulated inhibition of cAMP was performed via time-resolved fluorescence resonance energy transfer (TR-FRET) LANCE assay (AD0262, PerkinElmer Life Science, Inc., Boston Mass.). […] LANCE cAMP assay was performed per manufacture instruction with assessment of respective compound, somatostatin-28 (Sigma-Aldrich Co., St. Louis, Mo.) as control agonist, against 5 μM forskolin, performed in triplicate across concentration curve. […] Data was calculated via GraphPad PRISM-5 software.

Sequence of human somatostatin receptor SSTR2A (P30874 whole entry): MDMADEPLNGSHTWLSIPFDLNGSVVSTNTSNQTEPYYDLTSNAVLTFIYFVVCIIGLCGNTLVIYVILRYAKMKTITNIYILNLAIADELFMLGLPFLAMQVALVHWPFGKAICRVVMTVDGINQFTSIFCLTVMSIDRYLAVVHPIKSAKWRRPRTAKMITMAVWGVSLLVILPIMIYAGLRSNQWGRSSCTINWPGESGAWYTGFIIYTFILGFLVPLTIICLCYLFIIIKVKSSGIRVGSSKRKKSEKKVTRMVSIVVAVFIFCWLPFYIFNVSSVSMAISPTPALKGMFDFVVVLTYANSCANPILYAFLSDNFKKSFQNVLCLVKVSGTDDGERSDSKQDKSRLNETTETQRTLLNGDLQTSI
Sequence of CHO-K1 cells expressing human somatostatin SSTR4 (P31391 whole entry): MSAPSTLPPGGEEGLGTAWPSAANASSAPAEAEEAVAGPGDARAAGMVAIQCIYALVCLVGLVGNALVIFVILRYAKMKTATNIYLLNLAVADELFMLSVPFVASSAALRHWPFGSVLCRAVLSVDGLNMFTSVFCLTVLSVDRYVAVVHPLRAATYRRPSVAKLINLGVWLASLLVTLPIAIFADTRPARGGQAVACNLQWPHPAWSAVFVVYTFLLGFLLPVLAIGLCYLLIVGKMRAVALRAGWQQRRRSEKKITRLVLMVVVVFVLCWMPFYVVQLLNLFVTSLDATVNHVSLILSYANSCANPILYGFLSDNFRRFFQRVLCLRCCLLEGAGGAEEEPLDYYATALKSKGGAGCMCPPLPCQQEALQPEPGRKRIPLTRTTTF

Row | Structure (SMILES) | Ki [1] | Ki [2] | Ki [3] | Ki [4] | EC50 [5]
1 | COc1ccc(Cc2nnc(Cc3c[nH]c4ccccc34)n2CCCc2c[nH]cn2)cc1 [SK-I-23, 3-((4-(3-(1H-imidazol-4-yl)propyl)-5-(4-methoxybenzyl)-4H-1,2,4-triazol-3-yl)methyl)-1H-indole] | > 10 µM | 2.58 µM | > 10 µM | > 10 µM | 
2 | c1ccc(Cc2nnc(Cc3c[nH]c4ccccc34)n2CCCc2c[nH]cn2)cc1 [SK-I-25, 3-((4-(3-(1H-imidazol-4-yl)propyl)-5-benzyl-4H-1,2,4-triazol-3-yl)methyl)-1H-indole] |  |  | > 10 µM | 0.0017 µM | 0.00203 µM
3 | COc1ccc2[nH]cc(Cc3nnc(Cc4ccccc4)n3CCCc3c[nH]cn3)c2c1 [SK-I-53, 3-((4-(3-(1H-imidazol-4-yl)propyl)-5-benzyl-4H-1,2,4-triazol-3-yl)methyl)-5-methoxy-1H-indole] | > 10 µM | 1.72 µM | 7.1 µM | > 10 µM | 
4 | COc1ccc2[nH]cc(Cc3nnc(Cc4ccc(F)cc4)n3CCCc3c[nH]cn3)c2c1 [SK-I-55, 3-((4-(3-(1H-imidazol-4-yl)propyl)-5-(4-fluorobenzyl)-4H-1,2,4-triazol-3-yl)methyl)-5-methoxy-1H-indole] | > 10 µM | 1.03 µM | 5.43 µM | > 10 µM | 
5 | COc1ccc(Cc2nnc(Cc3c[nH]c4ccc(OC)cc34)n2CCCc2c[nH]cn2)cc1 [SK-I-56, 3-((4-(3-(1H-imidazol-4-yl)propyl)-5-(4-methoxybenzyl)-4H-1,2,4-triazol-3-yl)methyl)-5-methoxy-1H-indole] | > 10 µM | 1.01 µM | > 10 µM | > 10 µM | 
6 | COc1ccc2[nH]cc(Cc3nnc(Cc4cccc(C(F)(F)F)c4)n3CCCc3c[nH]cn3)c2c1 [SK-I-57, 3-((4-(3-(1H-imidazol-4-yl)propyl)-5-(3-(trifluoromethyl)benzyl)-4H-1,2,4-triazol-3-yl)methyl)-5-methoxy-1H-indole] | > 10 µM | 0.365 µM | 1.69 µM | 1.13 µM | 
7 | Fc1ccc(Cc2nnc(Cc3c[nH]c4cc(F)ccc34)n2CCCc2c[nH]cn2)cc1 [SK-I-91, 3-((4-(3-(1H-imidazol-4-yl)propyl)-5-(4-fluorobenzyl)-4H-1,2,4-triazol-3-yl)methyl)-6-fluoro-1H-indole] | > 10 µM | 0.468 µM | 3.97 µM | > 10 µM | 
8 | COc1ccc(Cc2nnc(Cc3c[nH]c4cc(F)ccc34)n2CCCc2c[nH]cn2)cc1 [SK-I-105, 3-((4-(3-(1H-imidazol-4-yl)propyl)-5-(4-methoxybenzyl)-4H-1,2,4-triazol-3-yl)methyl)-6-fluoro-1H-indole] | > 10 µM | 1.08 µM | 5.3 µM | > 10 µM | 
9 | CC(C)(C)Cc1nnc(Cc2c[nH]c3cc(F)ccc23)n1CCCc1c[nH]cn1 [SK-I-119, 3-((4-(3-(1H-imidazol-4-yl)propyl)-5-neopentyl-4H-1,2,4-triazol-3-yl)methyl)-6-fluoro-1H-indole] | > 10 µM | 4.34 µM | > 10 µM | > 10 µM | 
10 | Fc1ccc2c(Cc3nnc(Cc4c[nH]c5cc(F)ccc45)n3CCCc3c[nH]cn3)c[nH]c2c1 [SK-I-124, 3,3′-((4-(3-(1H-imidazol-4-yl)propyl)-4H-1,2,4-triazol-3,5-diyl)bis(methylene))bis(6-fluoro-1H-indole)] | > 10 µM | 0.0978 µM | 0.64 µM | 1.74 µM | 
11 | c1ccc(Cc2nnc(CCc3c[nH]c4ccccc34)n2CCCc2c[nH]cn2)cc1 [SM-I-26, 3-(2-(4-(3-(1H-Imidazol-4-yl)propyl)-5-benzyl-4H-1,2,4-triazol-3-yl)ethyl)-1H-indole] | > 10 µM | > 10 µM | > 10 µM | > 10 µM | 
12 | Fc1cccc(Cc2nnc(CCc3c[nH]c4ccccc34)n2CCCc2c[nH]cn2)c1 [SM-I-38, 3-(2-(4-(3-(1H-Imidazol-4-yl)propyl)-5-(3-fluorobenzyl)-4H-1,2,4-triazol-3-yl)ethyl)-1H-indole] | > 10 µM | > 10 µM | > 10 µM | > 10 µM | 
13 | Brc1cccc(Cc2nnc(CCc3c[nH]c4ccccc34)n2CCCc2c[nH]cn2)c1 [SM-I-50, 3-(2-(4-(3-(1H-Imidazol-4-yl)propyl)-5-(3-bromobenzyl)-4H-1,2,4-triazol-3-yl)ethyl)-1H-indole] | > 10 µM | 4.74 µM | > 10 µM | > 10 µM | 
14 | Fc1cc(F)cc(Cc2nnc(CCc3c[nH]c4ccccc34)n2CCCc2c[nH]cn2)c1 [SM-I-55, 3-(2-(4-(3-(1H-Imidazol-4-yl)propyl)-5-(3,5-difluorobenzyl)-4H-1,2,4-triazol-3-yl)ethyl)-1H-indole] | > 10 µM | > 10 µM | > 10 µM | > 10 µM | 
15 | Cn1cc(CCc2nnc(Cc3ccc(Cl)c(Cl)c3)n2CCCc2c[nH]cn2)c2ccccc21 [SM-I-60, 3-(2-(4-(3-(1H-Imidazol-4-yl)propyl)-5-(3,4-dichlorobenzyl)-4H-1,2,4-triazol-3-yl)ethyl)-1-methyl-1H-indole] | > 10 µM | 3.17 µM | > 10 µM | 6.99 µM | 
